Assay [1] addresses T1, Recombinant STAT6 protein (STAT6(W123-T658)) (Homo sapiens, UniProt P42226).
T1 construct: STAT6(W123-T658)
T1 sequence (P42226 123-658): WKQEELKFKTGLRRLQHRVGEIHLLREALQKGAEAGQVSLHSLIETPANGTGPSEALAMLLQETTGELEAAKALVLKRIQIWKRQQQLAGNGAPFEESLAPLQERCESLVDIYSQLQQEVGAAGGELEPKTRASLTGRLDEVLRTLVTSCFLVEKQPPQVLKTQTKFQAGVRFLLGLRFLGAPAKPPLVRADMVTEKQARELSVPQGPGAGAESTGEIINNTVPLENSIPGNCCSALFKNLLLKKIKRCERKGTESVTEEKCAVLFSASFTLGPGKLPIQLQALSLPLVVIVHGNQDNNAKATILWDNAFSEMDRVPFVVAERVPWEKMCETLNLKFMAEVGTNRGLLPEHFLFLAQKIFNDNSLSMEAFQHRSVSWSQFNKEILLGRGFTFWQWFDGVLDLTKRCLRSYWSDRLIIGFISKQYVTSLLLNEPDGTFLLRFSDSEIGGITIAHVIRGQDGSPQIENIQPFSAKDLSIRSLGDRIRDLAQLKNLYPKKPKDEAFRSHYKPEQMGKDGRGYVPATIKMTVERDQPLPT
In words: STAT6 Fluorescence Polarization (FP) Assay. The assay is classed as binding. Particulars: STAT6(W123-T658) 250 nM, probe 5-FAM-ApYKPFQDLI-NH2 2 nM, 45-minute incubation. The method, boiled down: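 Competitive displacement of a fluorescent phosphotyrosine peptide (2 nM) from recombinant STAT6 W123-T658 (250 nM), 45 min at room temperature in 10 mM HEPES pH 7.4, 50 mM NaCl, 2 mM DTT. mP fitted against log compound for IC50, grouped A (≤300 nM) to D (>30 μM).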
In general terms: Polarisation of emitted light reports the rotation of a fluorescent probe.

Assay [2] concerns the target T2, Recombinant STAT3 protein (STAT3(G127-I722)) (Homo sapiens, UniProt P40763).
T2 construct: STAT3(G127-I722)
In words: STAT3 Fluorescence Polarization (FP) Assay. The assay is classed as binding. Conditions: STAT3(G127-I722) 25 nM, probe 5-FAM-GpYLPQTV-NH2 2 nM, 45-minute incubation. The method, boiled down:
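Serially diluted compounds (1% DMSO) were mixed with 2 nM fluorescent phosphotyrosine peptide and 25 nM STAT3 construct G127-I722, pH 7.4, incubated 45 min at room temperature. IC50 values from fitted polarization curves are reported as categories A (≤100 nM), B, C, D (>10 μM).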

T2 sequence (P40763 127-722, species assumed): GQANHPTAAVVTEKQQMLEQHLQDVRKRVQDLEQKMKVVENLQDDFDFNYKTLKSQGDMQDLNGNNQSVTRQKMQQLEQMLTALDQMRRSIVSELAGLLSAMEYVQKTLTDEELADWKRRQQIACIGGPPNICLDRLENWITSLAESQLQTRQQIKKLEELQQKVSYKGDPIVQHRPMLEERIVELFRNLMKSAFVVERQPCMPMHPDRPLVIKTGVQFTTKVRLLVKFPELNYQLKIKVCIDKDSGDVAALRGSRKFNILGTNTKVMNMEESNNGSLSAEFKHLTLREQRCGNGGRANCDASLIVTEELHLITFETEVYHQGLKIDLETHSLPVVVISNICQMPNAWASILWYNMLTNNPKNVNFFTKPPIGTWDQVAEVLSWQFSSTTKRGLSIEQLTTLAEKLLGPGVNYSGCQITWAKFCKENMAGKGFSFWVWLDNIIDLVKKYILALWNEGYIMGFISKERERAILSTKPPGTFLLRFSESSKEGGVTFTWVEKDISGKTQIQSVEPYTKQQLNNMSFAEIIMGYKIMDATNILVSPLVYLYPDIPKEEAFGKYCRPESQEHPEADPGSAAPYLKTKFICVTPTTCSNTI

By IC50 is commonly meant the point on the concentration scale where inhibition reaches its midpoint. Regarding `O=C(N[C@H]1C[C@H]2C[C@H]2C[C@H]2CC[C@@H](C(=O)N[C@H]3CN(c4cccnc4)C[C@@H]3F)N2C1=O)c1cc2cc(C(F)P(=O)(O)O)ccc2s1` (stereo partly drawn) [Example 267, (fluoro(2-(((3S,6S,7aR,8aS,9aR)-3-(((3S,4S)-4-fluoro-1-(pyridin-3-yl)pyrrolidin-3-yl)carbamoyl)-5-oxodecahydro-1H-cyclopropa[d]pyrrolo[1,2-a]azocin-6-yl)carbamoyl)benzo[b]thiophen-5-yl)methyl)phosphonic acid], the IC50 in assay [1] is 0.3 to 3 µM; in assay [2] it was less than 0.1 µM.
In the same order, the values of `CC(=O)N1CCC2C1CN2C(=O)[C@@H]1CC[C@@H]2C[C@H]3C[C@H]3C[C@H](NC(=O)c3cc4cc(C(F)(F)P(=O)(O)O)ccc4s3)C(=O)N21` (stereo partly drawn) [Example 270, ((2-(((3S,6S,7aS,8aR,9aR)-3-(2-acetyl-2,6-diazabicyclo[3.2.0]heptane-6-carbonyl)-5-oxodecahydro-1H-cyclopropa[d]pyrrolo[1,2-a]azocin-6-yl)carbamoyl)benzo[b]thiophen-5-yl)difluoromethyl)phosphonic acid] are 0.3 to 3 µM and less than 0.1 µM.
Take `CC(=O)N1CCC2C1CN2C(=O)[C@@H]1CC[C@@H]2C[C@H]3C[C@H]3C[C@H](NC(=O)c3cc4cc(CP(=O)(O)O)ccc4s3)C(=O)N21` (stereo partly drawn) [Example 271, ((2-(((3S,6S,7aS,8aR,9aR)-3-(2-acetyl-2,6-diazabicyclo[3.2.0]heptane-6-carbonyl)-5-oxodecahydro-1H-cyclopropa[d]pyrrolo[1,2-a]azocin-6-yl)carbamoyl)benzo[b]thiophen-5-yl)methyl)phosphonic acid]: the IC50 in assay [1] is more than 30 µM; in assay [2] it was 1 to 10 µM.
For `COc1ccncc1C1CN(C(=O)[C@@H]2CC[C@@H]3C[C@H]4C[C@H]4C[C@H](NC(=O)c4cc5cc(C(F)P(=O)(O)O)ccc5s4)C(=O)N32)C1` (stereo partly drawn) [Example 272, (fluoro(2-(((3S,6S,7aS,8aR,9aR)-3-(3-(4-methoxypyridin-3-yl)azetidine-1-carbonyl)-5-oxodecahydro-1H-cyclopropa[d]pyrrolo[1,2-a]azocin-6-yl)carbamoyl)benzo[b]thiophen-5-yl)methyl)phosphonic acid] the same measures were 3 to 30 µM and less than 0.1 µM.
As to `CC(=O)N1C[C@H](NC(=O)[C@@H]2CC[C@@H]3C[C@]4(C)C[C@@H]4C[C@H](NC(=O)c4cc5cc(CP(=O)(O)O)ccc5s4)C(=O)N32)[C@@H](F)C1` [Example 273, ((2-(((3S,6S,7aR,8aS,9aR)-3-(((3S,4S)-1-acetyl-4-fluoropyrrolidin-3-yl)carbamoyl)-8a-methyl-5-oxodecahydro-1H-cyclopropa[d]pyrrolo[1,2-a]azocin-6-yl)carbamoyl)benzo[b]thiophen-5-yl)methyl)phosphonic acid], the results for the IC50 in assay [1] and in assay [2] were 3 to 30 µM and 1 to 10 µM, respectively.
Regarding `O=C(N[C@H]1C[C@@H]2C[C@@H]2C[C@H]2CC[C@@H](C(=O)N3CC4C3CCN4c3cccnc3)N2C1=O)c1cc2cc(C(F)(F)P(=O)(O)O)ccc2s1` (stereo partly drawn) [Example 274, (difluoro(2-(((3S,6S,7aS,8aR,9aR)-5-oxo-3-(2-(pyridin-3-yl)-2,6-diazabicyclo[3.2.0]heptane-6-carbonyl)decahydro-1H-cyclopropa[d]pyrrolo[1,2-a]azocin-6-yl)carbamoyl)benzo[b]thiophen-5-yl)methyl)phosphonic acid], the IC50 in assay [1] is 0.3 to 3 µM; in assay [2], less than 0.1 µM.
In the same order, the values of `O=C(N[C@H]1C[C@@H]2C[C@@H]2C[C@H]2CC[C@@H](C(=O)N3CC4C3CCN4c3cccnc3)N2C1=O)c1cc2cc(CP(=O)(O)O)ccc2s1` (stereo partly drawn) [Example 275, ((2-(((3S,6S,7aS,8aR,9aR)-5-oxo-3-(2-(pyridin-3-yl)-2,6-diazabicyclo[3.2.0]heptane-6-carbonyl)decahydro-1H-cyclopropa[d]pyrrolo[1,2-a]azocin-6-yl)carbamoyl)benzo[b]thiophen-5-yl)methyl)phosphonic acid] are 3 to 30 µM and 0.1 to 1 µM.
Take `O=C(N[C@H]1C[C@@H]2C[C@@H]2C[C@H]2CC[C@@H](C(=O)N[C@H]3CNC[C@@H]3F)N2C1=O)c1cc2cc(CP(=O)(O)O)ccc2s1` [Example 276, ((2-(((3S,6S,7aS,8aR,9aR)-3-(((3S,4S)-4-fluoropyrrolidin-3-yl)carbamoyl)-5-oxodecahydro-1H-cyclopropa[d]pyrrolo[1,2-a]azocin-6-yl)carbamoyl)benzo[b]thiophen-5-yl)methyl)phosphonic acid]: the IC50 in assay [1] was more than 30 µM; in assay [2], 1 to 10 µM.
For `Cc1ccncc1C1CN(C(=O)[C@@H]2CC[C@@H]3C[C@H]4C[C@H]4C[C@H](NC(=O)c4cc5cc(CP(=O)(O)O)ccc5s4)C(=O)N32)C1` [Example 277, ((2-(((3S,6S,7aS,8aR,9aR)-3-(3-(4-methylpyridin-3-yl)azetidine-1-carbonyl)-5-oxodecahydro-1H-cyclopropa[d]pyrrolo[1,2-a]azocin-6-yl)carbamoyl)benzo[b]thiophen-5-yl)methyl)phosphonic acid] the same measures were more than 30 µM and 0.1 to 1 µM.
In the same order, the values of `Cc1ccncc1N1C[C@H](NC(=O)[C@@H]2CC[C@@H]3C[C@H]4C[C@H]4C[C@H](NC(=O)c4cc5cc(CP(=O)(O)O)ccc5s4)C(=O)N32)[C@@H](F)C1` [Example 278, ((2-(((3S,6S,7aS,8aR,9aR)-3-(((3S,4S)-4-fluoro-1-(4-methylpyridin-3-yl)pyrrolidin-3-yl)carbamoyl)-5-oxodecahydro-1H-cyclopropa[d]pyrrolo[1,2-a]azocin-6-yl)carbamoyl)benzo[b]thiophen-5-yl)methyl)phosphonic acid] are more than 30 µM and 0.1 to 1 µM.
For `O=C(N[C@H]1C[C@@H]2C[C@@H]2C[C@H]2CC[C@@H](C(=O)N[C@H]3CN(c4cncnc4)C[C@@H]3F)N2C1=O)c1cc2cc(CP(=O)(O)O)ccc2s1` [Example 279, ((2-(((3S,6S,7aS,8aR,9aR)-3-(((3S,4S)-4-fluoro-1-(pyrimidin-5-yl)pyrrolidin-3-yl)carbamoyl)-5-oxodecahydro-1H-cyclopropa[d]pyrrolo[1,2-a]azocin-6-yl)carbamoyl)benzo[b]thiophen-5-yl)methyl)phosphonic acid], the IC50 in assay [1] was more than 30 µM; in assay [2], more than 10 µM.
Turning to `Cc1ccncc1C1CN(C(=O)[C@@H]2CC[C@@H]3C[C@H]4C[C@H]4C[C@H](NC(=O)c4cc5cc(C(F)P(=O)(O)O)ccc5s4)C(=O)N32)C1` (stereo partly drawn) [Example 280, (fluoro(2-(((3S,6S,7aS,8aR,9aR)-3-(3-(4-methylpyridin-3-yl)azetidine-1-carbonyl)-5-oxodecahydro-1H-cyclopropa[d]pyrrolo[1,2-a]azocin-6-yl)carbamoyl)benzo[b]thiophen-5-yl)methyl)phosphonic acid], the values for the concentration for half-maximal inhibition (IC50) in assay [1] and in assay [2] were 3 to 30 µM and less than 0.1 µM, respectively.
Regarding `Cn1cc(C2CN(C(=O)[C@@H]3CC[C@@H]4C[C@H]5C[C@H]5C[C@H](NC(=O)c5cc6cc(C(F)(F)P(=O)(O)O)ccc6s5)C(=O)N43)C2)cn1` [Example 282, (difluoro(2-(((3S,6S,7aS,8aR,9aR)-3-(3-(1-methyl-1H-pyrazol-4-yl)azetidine-1-carbonyl)-5-oxodecahydro-1H-cyclopropa[d]pyrrolo[1,2-a]azocin-6-yl)carbamoyl)benzo[b]thiophen-5-yl)methyl)phosphonic acid], the IC50 in assay [1] is 3 to 30 µM; in assay [2], less than 0.1 µM.
For `O=C(N[C@H]1C[C@@H]2C[C@@H]2C[C@H]2CC[C@@H](C(=O)N3CC(c4nccs4)C3)N2C1=O)c1cc2cc(C(F)(F)P(=O)(O)O)ccc2s1` [Example 286, (difluoro(2-(((3S,6S,7aS,8aR,9aR)-5-oxo-3-(3-(thiazol-2-yl)azetidine-1-carbonyl)decahydro-1H-cyclopropa[d]pyrrolo[1,2-a]azocin-6-yl)carbamoyl)benzo[b]thiophen-5-yl)methyl)phosphonic acid] the same measures were 3 to 30 µM and less than 0.1 µM.
For `O=C(N[C@H]1C[C@@H]2C[C@@H]2C[C@H]2CC[C@@H](C(=O)N3CC(c4cn[nH]c4)C3)N2C1=O)c1cc2cc(C(F)(F)P(=O)(O)O)ccc2s1` [Example 288, ((2-(((3S,6S,7aS,8aR,9aR)-3-(3-(1H-pyrazol-4-yl)azetidine-1-carbonyl)-5-oxodecahydro-1H-cyclopropa[d]pyrrolo[1,2-a]azocin-6-yl)carbamoyl)benzo[b]thiophen-5-yl)difluoromethyl)phosphonic acid] the same measures were 3 to 30 µM and less than 0.1 µM.

The values above are taken from patent US20250215030A1, “STAT MODULATORS AND USES THEREOF” (Recludix Pharma, Inc., priority 2022, published 2025).
